Results: PubChem BioAssay AID342 (DTP/NCI, 2004)
Values joined by “and” are separate entries in the source; they are usually repeats but may differ in a detail not shown here. Equal entries are not always repeated.

Tested on: Swiss mice, Sarcoma 180 sc, mean tumor weight T/C
Assay: NCI In Vivo Anticancer Drug Screen. Data for tumor model Sarcoma 180 (subcutaneous) in Swiss mice
Settings: endpoint: mean tumor weight, higher = larger tumour
Procedure, shortened: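 Tumor-bearing mice, transplantable tumor; readout survival or tumor size; result = T/C, treated vs vehicle control.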

[1] = dose: 45.0 mg/kg/injection, schedule: Q01DX007 (ip), vehicle: carboxymethylcellulose (CMC)

SMILES: O=C(Nc1ccc2cc(S(=O)(=O)O)ccc2c1)c1ccc(N=Nc2c(S(=O)(=O)O)cc3cc(S(=O)(=O)O)cc(NC(=O)c4ccccc4)c3c2O)cc1
- T/C (dose: 41.5 mg/kg/injection, schedule: Q#A X014 (ip), vehicle: methylcellulose (MC)): 52 % of control and 61 % of control and 77 % of control
- T/C (dose: 93.5 mg/kg/injection, schedule: Q#A X014 (ip), vehicle: methylcellulose (MC)): 44 % of control and 63 % of control

SMILES: O=C(NP(=O)(N1CC1)N1CC1)OCc1ccccc1
- T/C (dose: 1.5 mg/kg/injection, schedule: Q#A X014 (ip), vehicle: saline): 82 % of control
- T/C (dose: 3.0 mg/kg/injection, schedule: Q#A X014 (ip), vehicle: saline): 81 % of control
- T/C (dose: 6.0 mg/kg/injection, schedule: Q#A X014 (ip), vehicle: saline): 36 % of control
- T/C (dose: 12.0 mg/kg/injection, schedule: Q#A X014 (ip), vehicle: saline): 1 % of control

SMILES: NCC(=O)O.[Zn+2]
- T/C (dose: 1.25 mg/kg/injection, schedule: Q01DX007 (iv), vehicle: water): 99 % of control
- T/C (dose: 2.5 mg/kg/injection, schedule: Q01DX007 (iv), vehicle: water): 83 % of control
- T/C (dose: 5.0 mg/kg/injection, schedule: Q01DX007 (iv), vehicle: water): 113 % of control
- T/C (dose: 10.0 mg/kg/injection, schedule: Q01DX007 (iv), vehicle: water): 95 % of control

SMILES: C1CCCNCC1
- T/C (dose: 15.5 mg/kg/injection, schedule: Q01DX007 (ip), vehicle: other): 92 % of control
- T/C (dose: 31.0 mg/kg/injection, schedule: Q01DX007 (ip), vehicle: other): 69 % of control
- T/C (dose: 62.5 mg/kg/injection, schedule: Q01DX007 (ip), vehicle: other): 103 % of control
- T/C (dose: 125.0 mg/kg/injection, schedule: Q01DX007 (ip), vehicle: other): 69 % of control
- T/C (dose: 200.0 mg/kg/injection, schedule: Q01DX007 (ip), vehicle: other): 69 % of control

SMILES: C[C@@H]1C[C@@H]([C@H](O)CC2CC(=O)NC(=O)C2)C(=O)[C@@H](C)C1
- T/C (dose: 3.0 mg/kg/injection, schedule: Q#A X014 (ip), vehicle: carboxymethylcellulose (CMC)): 79 % of control and 92 % of control
- T/C (dose: 6.25 mg/kg/injection, schedule: Q#A X014 (ip), vehicle: carboxymethylcellulose (CMC)): 77 % of control
- T/C (dose: 9.6 mg/kg/injection, schedule: Q01DX007 (ip), vehicle: carboxymethylcellulose (CMC)): 85 % of control and 96 % of control and 106 % of control
- T/C (dose: 12.0 mg/kg/injection, schedule: Q01DX007 (ip), vehicle: carboxymethylcellulose (CMC)): 100 % of control (2×) and 122 % of control
- T/C (dose: 12.0 mg/kg/injection, schedule: Q#A X014 (ip), vehicle: carboxymethylcellulose (CMC)): 38 % of control and 63 % of control
- T/C (dose: 12.5 mg/kg/injection, schedule: Q#A X014 (ip), vehicle: carboxymethylcellulose (CMC)): 68 % of control
- T/C (dose: 24.0 mg/kg/injection, schedule: Q01DX007 (ip), vehicle: carboxymethylcellulose (CMC)): 58 % of control and 60 % of control and 65 % of control

SMILES: CC(=O)Nc1ccc(/C=N/Nc2ccc([N+](=O)[O-])cn2)cc1
- T/C [1]: 62 % of control
- T/C (dose: 67.0 mg/kg/injection, schedule: Q01DX007 (ip), vehicle: carboxymethylcellulose (CMC)): 79 % of control
- T/C (dose: 83.3 mg/kg/injection, schedule: Q#A X014 (ip), vehicle: carboxymethylcellulose (CMC)): 77 % of control
- T/C (dose: 83.3 mg/kg/injection, schedule: Q#A X014 (ip), vehicle: methylcellulose (MC)): 61 % of control
- T/C (dose: 125.0 mg/kg/injection, schedule: Q#A X014 (ip), vehicle: carboxymethylcellulose (CMC)): 22 % of control
- T/C (dose: 187.5 mg/kg/injection, schedule: Q#A X014 (ip), vehicle: carboxymethylcellulose (CMC)): 48 % of control
- T/C (dose: 281.25 mg/kg/injection, schedule: Q#A X014 (ip), vehicle: carboxymethylcellulose (CMC)): 47 % of control

SMILES: CCOC(=O)C1=C(C)NC(C)=C(C(=O)OCC)C1C
- T/C (dose: 3.1 mg/kg/injection, schedule: Q01DX007 (ip), vehicle: other): 50 % of control
- T/C (dose: 6.25 mg/kg/injection, schedule: Q01DX007 (ip), vehicle: other): 33 % of control
- T/C (dose: 31.2 mg/kg/injection, schedule: Q01DX007 (ip), vehicle: other): 42 % of control
- T/C (dose: 31.25 mg/kg/injection, schedule: Q01DX007 (ip), vehicle: other): 60 % of control
- T/C (dose: 62.5 mg/kg/injection, schedule: Q01DX007 (oral), vehicle: other): 57 % of control
- T/C (dose: 62.5 mg/kg/injection, schedule: Q01DX007 (sc), vehicle: other): 98 % of control
- T/C (dose: 62.5 mg/kg/injection, schedule: Q02DX004 (ip), vehicle: other): 60 % of control
- T/C (dose: 62.5 mg/kg/injection, schedule: Q03DX003 (ip), vehicle: other): 60 % of control
- T/C (dose: 100.0 mg/kg/injection, schedule: Q01DX007 (ip), vehicle: other): 69 % of control
- T/C (dose: 125.0 mg/kg/injection, schedule: Q01DX007 (oral), vehicle: other): 84 % of control
- T/C (dose: 125.0 mg/kg/injection, schedule: Q01DX007 (sc), vehicle: other): 57 % of control
- T/C (dose: 125.0 mg/kg/injection, schedule: Q02DX004 (ip), vehicle: other): 50 % of control
- T/C (dose: 125.0 mg/kg/injection, schedule: Q03DX003 (ip), vehicle: other): 60 % of control
- T/C (dose: 175.0 mg/kg/injection, schedule: Q01DX007 (ip), vehicle: other): 29 % of control
- T/C (dose: 250.0 mg/kg/injection, schedule: Q01DX007 (oral), vehicle: other): 76 % of control
- T/C (dose: 250.0 mg/kg/injection, schedule: Q01DX007 (sc), vehicle: other): 60 % of control
- T/C (dose: 250.0 mg/kg/injection, schedule: Q02DX004 (ip), vehicle: other): 36 % of control
- T/C (dose: 250.0 mg/kg/injection, schedule: Q03DX003 (ip), vehicle: other): 54 % of control

SMILES: CCCCCCCCCCCCNCCCCCCCCCCCC
- T/C (dose: 2.5 mg/kg/injection, schedule: Q01DX007 (ip), vehicle: water): 107 % of control
- T/C (dose: 5.0 mg/kg/injection, schedule: Q01DX007 (ip), vehicle: water): 54 % of control
- T/C (dose: 7.5 mg/kg/injection, schedule: Q01DX007 (ip), vehicle: water): 60 % of control
- T/C (dose: 10.0 mg/kg/injection, schedule: Q01DX007 (ip), vehicle: water): 44 % of control

SMILES: C[C@]12CCC(=O)C=C1[C@@H](F)C[C@@H]1[C@@H]2[C@@H](O)C[C@@]2(C)[C@H]1CC[C@]2(O)C(=O)CO
- T/C (dose: 37.0 mg/kg/injection, schedule: Q01DX007 (sc), vehicle: steriod suspending solution): 76 % of control
- T/C (dose: 56.0 mg/kg/injection, schedule: Q01DX007 (sc), vehicle: steriod suspending solution): 89 % of control
- T/C (dose: 125.0 mg/kg/injection, schedule: Q01DX007 (sc), vehicle: steriod suspending solution): 97 % of control
- T/C (dose: 126.0 mg/kg/injection, schedule: Q01DX007 (sc), vehicle: steriod suspending solution): 33 % of control
- T/C (dose: 188.0 mg/kg/injection, schedule: Q01DX007 (sc), vehicle: steriod suspending solution): 29 % of control

SMILES: O=C1C=CC(=O)N1c1ccc2c(c1)oc(=O)c1ccccc12
- T/C (dose: 60.0 mg/kg/injection, schedule: Q01DX007 (ip), vehicle: other): 76 % of control
- T/C (dose: 95.0 mg/kg/injection, schedule: Q01DX007 (ip), vehicle: other): 58 % of control
- T/C (dose: 99.0 mg/kg/injection, schedule: Q01DX007 (ip), vehicle: steriod suspending solution): 51 % of control
- T/C (dose: 148.0 mg/kg/injection, schedule: Q01DX007 (ip), vehicle: other): 42 % of control
- T/C (dose: 148.0 mg/kg/injection, schedule: Q01DX007 (ip), vehicle: steriod suspending solution): 81 % of control
- T/C (dose: 222.0 mg/kg/injection, schedule: Q01DX007 (ip), vehicle: other): 36 % of control and 44 % of control
- T/C (dose: 222.0 mg/kg/injection, schedule: Q01DX007 (ip), vehicle: steriod suspending solution): 69 % of control
- T/C (dose: 333.0 mg/kg/injection, schedule: Q01DX007 (ip), vehicle: other): 49 % of control
- T/C (dose: 500.0 mg/kg/injection, schedule: Q01DX007 (ip), vehicle: other): 29 % of control

SMILES: O=CNc1c(Cl)c(Cl)c2c(c1Cl)Cc1cc(Cl)ccc1-2
- T/C (dose: 5.0 mg/kg/injection, schedule: Q01DX007 (ip), vehicle: carboxymethylcellulose (CMC)): 70 % of control
- T/C (dose: 15.0 mg/kg/injection, schedule: Q01DX007 (ip), vehicle: carboxymethylcellulose (CMC)): 60 % of control
- T/C (dose: 30.0 mg/kg/injection, schedule: Q01DX007 (ip), vehicle: carboxymethylcellulose (CMC)): 34 % of control
- T/C (dose: 49.0 mg/kg/injection, schedule: Q01DX007 (ip), vehicle: carboxymethylcellulose (CMC)): 63 % of control
- T/C (dose: 73.0 mg/kg/injection, schedule: Q01DX007 (ip), vehicle: carboxymethylcellulose (CMC)): 64 % of control
- T/C (dose: 110.0 mg/kg/injection, schedule: Q01DX007 (ip), vehicle: carboxymethylcellulose (CMC)): 51 % of control
- T/C (dose: 165.0 mg/kg/injection, schedule: Q01DX007 (ip), vehicle: carboxymethylcellulose (CMC)): 5 % of control

SMILES: Nc1nc(=S)c2ncn(C3CCCO3)c2[nH]1 (stereo unspecified)
- T/C (dose: 20.0 mg/kg/injection, schedule: Q01DX007 (ip), vehicle: carboxymethylcellulose (CMC)): 43 % of control and 46 % of control
- T/C [1]: 18 % of control and 38 % of control
- T/C (dose: 90.0 mg/kg/injection, schedule: Q01DX007 (ip), vehicle: carboxymethylcellulose (CMC)): 9 % of control

SMILES: CN(C)Cc1c[nH]c2ccccc12
- T/C (dose: 62.5 mg/kg/injection, schedule: Q01DX007 (ip), vehicle: carboxymethylcellulose (CMC)): 69 % of control
